Experimental data: the supplement of paper PMC11368000

Key:
Settings in all cases: exposure time: 90 min
1083 = donor line of iPSC-derived cardiomyocytes; assay: POD (EC95) for loss of peak frequency (asystole) vs vehicle; higher = less potent (higher point of departure)
Procedure, shortened: (§1)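 A FLIPR Tetra recorded Ca2+ flux in dye-loaded human iPSC-derived cardiomyocytes from 16 donors before and after 90 min at 37 °C with 0.1, 1, 10 and 100 µM (final concentrations, 0.5% DMSO). Vehicle-normalised beat frequency, decay-to-rise ratio or peak frequency were fitted with hierarchical Bayesian Hill models to give donor-specific points of departure. The threshold was a 5% change, or for peak frequency a 95% loss.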

1118 = donor line of iPSC-derived cardiomyocytes; assay: as above
Procedure, shortened: as §1

11235 = donor line of iPSC-derived cardiomyocytes; assay: as above
Procedure, shortened: as §1

1309 [1] = donor line of iPSC-derived cardiomyocytes; assay: as above
Procedure, shortened: as §1

1368 = donor line of iPSC-derived cardiomyocytes; assay: as above
Procedure, shortened: as §1

1392 = donor line of iPSC-derived cardiomyocytes; assay: as above
Procedure, shortened: as §1

1434 = donor line of iPSC-derived cardiomyocytes; assay: as above
Procedure, shortened: as §1

1516 = donor line of iPSC-derived cardiomyocytes; assay: as above
Procedure, shortened: as §1

1518 = donor line of iPSC-derived cardiomyocytes; assay: as above
Procedure, shortened: as §1

1531 [2] = donor line of iPSC-derived cardiomyocytes; assay: as above
Procedure, shortened: as §1

1535 = donor line of iPSC-derived cardiomyocytes; assay: as above
Procedure, shortened: as §1

1565 = donor line of iPSC-derived cardiomyocytes; assay: as above
Procedure, shortened: as §1

20032 [3] = donor line of iPSC-derived cardiomyocytes; assay: as above
Procedure, shortened: as §1

20084 = donor line of iPSC-derived cardiomyocytes; assay: as above
Procedure, shortened: as §1

30145 [4] = donor line of iPSC-derived cardiomyocytes; assay: as above
Procedure, shortened: as §1

30171 = donor line of iPSC-derived cardiomyocytes; assay: as above
Procedure, shortened: as §1

1309 [5] = assay: POD (EC10) for decrease in total cell number (cytotoxicity) vs vehicle; higher = less potent (higher point of departure)
Procedure, shortened: (§2)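 After 14 days of culture in 384-well plates, human iPSC-derived cardiomyocytes from 16 donors received 0.1, 1, 10 or 100 µM (final, 0.5% DMSO) for 90 min at 37 °C. Nuclei were then counted per field in MetaXpress from 10× images after Hoechst 33342 staining, and a 10% decrease in vehicle-normalised counts served as the benchmark. For each donor, the cytotoxicity point of departure came from a hierarchical Bayesian Hill fit.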

1531 [6] = assay: as above
Procedure, shortened: as §2

20032 [7] = assay: as above
Procedure, shortened: as §2

30145 [8] = assay: as above
Procedure, shortened: as §2

Compound | POD vs vehicle 1083 [µM] | POD vs vehicle 1118 [µM] | POD vs vehicle 11235 [µM] | POD vs vehicle 1309 [1] [µM] | POD vs vehicle 1368 [µM] | POD vs vehicle 1392 [µM] | POD vs vehicle 1434 [µM] | POD vs vehicle 1516 [µM] | POD vs vehicle 1518 [µM] | POD vs vehicle 1531 [2] [µM] | POD vs vehicle 1535 [µM] | POD vs vehicle 1565 [µM] | POD vs vehicle 20032 [3] [µM] | POD vs vehicle 20084 [µM] | POD vs vehicle 30145 [4] [µM] | POD vs vehicle 30171 [µM] | POD vs vehicle 1309 [5] [µM] | POD vs vehicle 1531 [6] [µM] | POD vs vehicle 20032 [7] [µM] | POD vs vehicle 30145 [8] [µM]
O=S(=O)(O)C(F)(F)C(F)(F)C(F)(F)C(F)(F)C(F)(F)C(F)(F)C(F)(F)C(F)(F)F [Perfluorooctanesulfonic_acid] | > 100 | > 100 | 12.5 | > 100 | > 100 | > 100 | > 100 | > 100 | > 100 | > 100 | > 100 | > 100 | > 100 | > 100 | > 100 | > 100 | 88.7 | > 100 | > 100 | > 100
O=C(O)C(F)(F)C(F)(F)C(F)(F)C(F)(F)C(F)(F)C(F)(F)C(F)(F)F [Perfluorooctanoic_acid] | > 100 | > 100 | 92.2 | > 100 | > 100 | > 100 | > 100 | > 100 | > 100 | > 100 | > 100 | > 100 | > 100 | > 100 | > 100 | > 100 | > 100 | > 100 | > 100 | > 100
O=C(O)C(F)(F)C(F)(F)C(F)(F)C(F)(F)F [Perfluoropentanoic_acid] | > 100 | > 100 | > 100 | > 100 | > 100 | > 100 | > 100 | > 100 | > 100 | > 100 | > 100 | > 100 | > 100 | > 100 | > 100 | > 100 | > 100 | > 100 | > 100 | > 100
O=C(O)C(F)(F)C(F)(F)F [Perfluoropropanoic_acid] | > 100 | > 100 | > 100 | > 100 | > 100 | > 100 | > 100 | > 100 | > 100 | > 100 | > 100 | > 100 | > 100 | > 100 | > 100 | > 100 | > 100 | > 100 | > 100 | > 100
O=C(O)C(F)(F)C(F)(F)C(F)(F)C(F)(F)C(F)(F)C(F)(F)C(F)(F)C(F)(F)C(F)(F)C(F)(F)F [Perfluoroundecanoic_acid] | > 100 | > 100 | 95.4 | > 100 | > 100 | > 100 | > 100 | > 100 | > 100 | > 100 | > 100 | > 100 | > 100 | > 100 | > 100 | > 100 | > 100 | > 100 | > 100 | > 100
O=S(=O)([O-])C(F)(F)C(F)(F)C(F)(F)C(F)(F)F.[K+] [Potassium_perfluorobutanesulfonate] | > 100 | > 100 | > 100 | > 100 | > 100 | > 100 | > 100 | > 100 | > 100 | > 100 | > 100 | > 100 | > 100 | > 100 | > 100 | > 100 | > 100 | > 100 | > 100 | > 100
